Values joined by “and” are separate entries in the source; they are usually repeats but may differ in a detail not shown here. Equal values may be shown once.
Tests used:
LAT1 [1] = system: LAT1; design: method as in PMID 21770378, PMID 11901210, PMID 25205473, PMID 30048132; settings: cited from earlier work
PC12 cells = assay: In vitro uptake (binding) assay in PC12 cells; type: cell-based; settings: 30mins incubation, 1 million cells
Procedure: (§1) Both [^18F]FDOPA enantiomers were initially assessed in vitro in all NET cells.
(§2) In vitro binding assays were carried out, in triplicate, in PBS with 0.5% FBS, for 30mins at ambient temperatures using 1 million cells and repeated three times. Blocking studies were carried out using 10meq of the commercial LAT1 inhibitor, 2-Aminobicyclo[2.2.1]heptane-2-carboxylic acid (TOCRIS, MN, USA). Following incubation with each tracer, cells were rinsed three times with cold PBS prior to being counted on an automated gamma counter (1282 Compugamma CS; Pharmacia/LKBNuclear, Inc.) along with external standards. Obtained counts were converted into percentage incubated dose per million cells based on normalization to external standards. Experiments were performed in triplicate and repeated three times.

STC-1 cells = assay: In vitro uptake (binding) assay in STC-1 cells; type: cell-based; settings: 30mins incubation, 1 million cells, % incubated dose/million cells
Procedure: as §1, §2

PC12 xenografts [2] = assay: In vivo PET-CT quantitative image analysis, PC12 xenografts; settings: PC12 tumors, NSG mice, 9MBq
Procedure: (§3) All animal studies were carried out according to regulations set forth and approved by the Johns Hopkins Animal Care and Use Committee. Female, 6- to 8-weeks-old immunodeficient NOD scid gamma (NSG) mice were subcutaneously inoculated with 1 million PC12, STC-1 or COLO-320 cells in […] of Hank’s balanced salt solution in the top flank. Tumors of 4–6 mm in diameter (typically 14-21 days post inoculation) were utilized for in vivo imaging or ex vivo biodistribution studies.
(§4) Mice (n=4) were injected with 9MBq (250μCi) of each tracer in 150μL of saline intravenously and anesthetized with 3% isoflurane prior to being placed on the scanner bed. Mice were kept warm with an external light source and maintained at 1% isoflurane levels while being scanned. PET imaging (2 beds; 10 min per bed) was carried out using an ARGUS small-animal PET/CT scanner (Sedecal). A CT scan (512 projections) was obtained at the end of each PET scan for anatomical co-registration. For in vivo blocking experiments, mice were injected with 10meq of LAT1 inhibitor. PET data were reconstructed using the 2-dimensional ordered subsets-expectation maximization algorithm (2D-OSEM) and corrected for dead time and radioactive decay. Data visualization and image generation were carried out using Amira 2019.1 (ThermoFisher Scientific).
(§5) Quantitative in vivo image analysis was carried out in AMIDE (SourceForge) 1.0.4 utilizing ellipsoid region-of-interest volume integrations with 3 slices entailing a depth of 1.9 mm per slice. The %ID per cc values were calculated based on a calibration factor obtained from a phantom (known radioactive quantity in a known volume).

STC-1 xenografts [3] = assay: In vivo PET-CT quantitative image analysis, STC-1 xenografts; settings: STC-1 tumors, NSG mice, 9MBq
Procedure: as §3, §4, §5

COLO-320 xenografts [4] = assay: In vivo PET-CT quantitative image analysis, COLO-320 xenografts; settings: COLO-320 tumors, NSG mice, 9MBq
Procedure: as §3, §4, §5

STC-1 xenografts [5] = assay: Ex vivo biodistribution in NSG mice bearing STC-1 xenografts; settings: STC-1 xenograft NSG mice, 1.5MBq i.v.
Procedure: as §3
(§6) Mice (n=5 per group) were intravenously injected with 1.5MBq (40μCi) of each tracer in 150μL of saline. Ex vivo biodistribution studies were performed at 30min and 120min time points after tracer administration. Blood, liver, spleen, heart, lungs, kidneys, small intestines, stomach, muscle, fat, bone, bladder, brain and tumor tissues were retrieved, weighed, and counted in an automated gamma counter (1282 Compugamma CS). Percentage injected dose per gram (%ID/g) values were calculated based on normalization to external standards, counted in triplicate, and accounted for signal-decay correction.

COLO-320 xenografts [6] = assay: Ex vivo biodistribution in NSG mice bearing COLO-320 xenografts; settings: for small intestines retention, fold higher than tumor uptake: COLO-320 mice
Procedure: as §3, §6

PC12 xenografts [7] = assay: Ex vivo biodistribution in NSG mice bearing PC12 xenografts; settings: PC12 xenograft NSG mice, 1.5MBq i.v.
Procedure: as §3, §6

[8] = system: NET xenografts (STC-1, PC12, COLO-320); assay: Ex vivo biodistribution, across all NET mouse models; type: in vivo, mice; settings: for brain accumulation, average in all NET mice: average over STC-1, COLO-320 and PC12 mice
Procedure: as §3, §6

LAT1 [9] = assay: In vivo PET-CT blocking by BCH in NET mouse models; design: species or system mice; settings: all NET mouse models (PC12, STC-1, COLO-320), 10meq LAT1 inhibitor
Procedure: as §4, §5

[10] = COLO-320 xenograft NSG mice, 30min p.i., 1.5MBq i.v.
[11] = COLO-320 xenograft NSG mice, 120min p.i., 1.5MBq i.v.

## N[C@H](Cc1ccc(O)c(O)c1)C(=O)O [D-DOPA, 3,4-dihydroxy-D-phenylalanine]
LAT1 [1]
  IC50: 46 ± 23 µM

## N[C@@H](Cc1ccc(O)c(O)c1)C(=O)O [L-DOPA, 3,4-dihydroxy-L-phenylalanine]
LAT1 [1]
  IC50: 69 ± 29 µM

## N[C@@H](Cc1cc(O)c(O)cc1[18F])C(=O)O [L-[^18F]FDOPA, 3,4-dihydroxy-6-[^18F]fluoro-L-phenylalanine]
PC12 cells
  in vitro uptake: 19.73±0.71 % (incubated dose/million cells)
STC-1 cells
  in vitro uptake: 2.97±0.07%
PC12 xenografts [2]; 30min post i.v. injection
  tumor uptake, quantitative PET image analysis: 35.73±2.50 %ID/cc
PC12 xenografts [2]; 120min post i.v. injection
  tumor uptake, quantitative PET image analysis: 18.82±1.55 %ID/cc
STC-1 xenografts [3]; 30min post i.v. injection
  tumor uptake, quantitative PET image analysis: 33.29±1.66 %ID/cc
STC-1 xenografts [3]; 120min post i.v. injection
  tumor uptake, quantitative PET image analysis: 10.38±1.31 %ID/cc
COLO-320 xenografts [4]; 30min post i.v. injection
  tumor uptake, quantitative PET image analysis: 11.99±0.50 %ID/cc
COLO-320 xenografts [4]; 120min post i.v. injection
  tumor uptake, quantitative PET image analysis: 15.10±1.30 %ID/cc
STC-1 xenografts [5]; 30min p.i.
  Biodistribution, Bladder: 5.15 %ID/g
  Biodistribution, Blood: 3.94 %ID/g
  Biodistribution, Bone: 3.09 %ID/g
  Biodistribution, Brain: 2.16 %ID/g
  Biodistribution, Fat: 1.34 %ID/g
  Biodistribution, Heart: 2.72 %ID/g
  Biodistribution, Kidneys: 8.90 %ID/g
  Biodistribution, Liver: 4.87 %ID/g
  Biodistribution, Lungs: 4.13 %ID/g
  Biodistribution, Muscle: 3.63 %ID/g
  Biodistribution, Pancreas: 44.22 %ID/g
  Biodistribution, Small Intestines: 16.04±2.47 %ID/g and 16.43 %ID/g
  Biodistribution, Spleen: 3.98 %ID/g
  Biodistribution, Stomach: 8.97 %ID/g
  Biodistribution, Tumor: 11.06 %ID/g
STC-1 xenografts [5]; 120min p.i.
  Biodistribution, Bladder: 8.80 %ID/g
  Biodistribution, Blood: 1.47 %ID/g
  Biodistribution, Bone: 5.40 %ID/g
  Biodistribution, Brain: 1.07 %ID/g
  Biodistribution, Fat: 0.78 %ID/g
  Biodistribution, Heart: 2.34 %ID/g
  Biodistribution, Kidneys: 4.00 %ID/g
  Biodistribution, Liver: 1.73 %ID/g
  Biodistribution, Lungs: 1.89 %ID/g
  Biodistribution, Muscle: 2.75 %ID/g
  Biodistribution, Pancreas: 20±0.89 %ID/g and 20.71 %ID/g
  Biodistribution, Small Intestines: 5.08 %ID/g
  Biodistribution, Spleen: 6.55 %ID/g
  Biodistribution, Stomach: 6.83 %ID/g
  Biodistribution, Tumor: 6.98 %ID/g
COLO-320 xenografts [6]; 30min
  small intestines retention, fold higher than tumor uptake: 5 fold
COLO-320 xenografts [6]; 120min
  small intestines retention, fold higher than tumor uptake: 3 fold
COLO-320 xenografts [6]; [10]
  Biodistribution, Bladder: 8.38 %ID/g
  Biodistribution, Blood: 5.53 %ID/g
  Biodistribution, Bone: 5.05 %ID/g
  Biodistribution, Brain: 2.58 %ID/g
  Biodistribution, Fat: 0.95 %ID/g
  Biodistribution, Heart: 3.85 %ID/g
  Biodistribution, Kidneys: 13.60 %ID/g
  Biodistribution, Liver: 10.68 %ID/g
  Biodistribution, Lungs: 6.11 %ID/g
  Biodistribution, Muscle: 5.27 %ID/g
  Biodistribution, Pancreas: 57.82 %ID/g
  Biodistribution, Small Intestines: 15.72 %ID/g
  Biodistribution, Spleen: 5.72 %ID/g
  Biodistribution, Stomach: 11.27 %ID/g
  Biodistribution, Tumor: 5.15 %ID/g
COLO-320 xenografts [6]; [11]
  Biodistribution, Bladder: 14.73 %ID/g
  Biodistribution, Blood: 2.44 %ID/g
  Biodistribution, Bone: 7.40 %ID/g
  Biodistribution, Brain: 1.28 %ID/g
  Biodistribution, Fat: 1.76 %ID/g
  Biodistribution, Heart: 2.74 %ID/g
  Biodistribution, Kidneys: 4.16 %ID/g
  Biodistribution, Liver: 2.85 %ID/g
  Biodistribution, Lungs: 2.55 %ID/g
  Biodistribution, Muscle: 4.40 %ID/g
  Biodistribution, Pancreas: 37±5.43 %ID/g and 37.13 %ID/g
  Biodistribution, Small Intestines: 8.66 %ID/g
  Biodistribution, Spleen: 6.72 %ID/g
  Biodistribution, Stomach: 7.99 %ID/g
PC12 xenografts [7]; 30min p.i.
  Biodistribution, Bladder: 7.24 %ID/g
  Biodistribution, Blood: 4.14 %ID/g
  Biodistribution, Bone: 3.86 %ID/g
  Biodistribution, Brain: 1.90 %ID/g
  Biodistribution, Fat: 1.25 %ID/g
  Biodistribution, Heart: 2.96 %ID/g
  Biodistribution, Kidneys: 14.60 %ID/g
  Biodistribution, Liver: 8.59 %ID/g
  Biodistribution, Lungs: 4.57 %ID/g
  Biodistribution, Muscle: 4.70 %ID/g
  Biodistribution, Pancreas: 50.08 %ID/g
  Biodistribution, Small Intestines: 11.50 %ID/g
  Biodistribution, Spleen: 4.30 %ID/g
  Biodistribution, Stomach: 9.04 %ID/g
PC12 xenografts [7]; 120min p.i.
  Biodistribution, Bladder: 14.06 %ID/g
  Biodistribution, Blood: 2.19 %ID/g
  Biodistribution, Bone: 7.19 %ID/g
  Biodistribution, Brain: 1.31 %ID/g
  Biodistribution, Fat: 1.78 %ID/g
  Biodistribution, Heart: 2.45 %ID/g
  Biodistribution, Kidneys: 4.84 %ID/g
  Biodistribution, Liver: 3.01 %ID/g
  Biodistribution, Lungs: 2.43 %ID/g
  Biodistribution, Muscle: 3.48 %ID/g
  Biodistribution, Pancreas: 36.66 %ID/g
  Biodistribution, Small Intestines: 10.02 %ID/g
  Biodistribution, Spleen: 6.11 %ID/g
  Biodistribution, Stomach: 8.28 %ID/g
[8]; 30min p.i.
  brain accumulation, average in all NET mice: 2.21±0.17 %ID/g
[8]; 120min p.i.
  brain accumulation, average in all NET mice: 1.22±0.16 %ID/g
[8]; STC-1 vs COLO-320 tumors
  tumor uptake, fold higher in STC-1 than in COLO-320 tumors: > 2 fold
LAT1 [9]
  tumor uptake after in vivo blocking by BCH: significantly reduced

— paper PMC6791383, “A side-by-side evaluation of [^18F]FDOPA enantiomers for non-invasive detection of neuroendocrine tumors by positron emission tomography” (Oncotarget, 2019)
